Assay results as given in US20070003987A1, “Screening method for substance binding to merozoite surface protein-1/42” (priority 2003, published 2007).

System: P. vivax MSP133
Test: binding of suramin by fluorimetry
Procedure: P. vivax MSP133 was expressed using the P. vivax MSP142 clone, above, as a template for PCR, followed by ligation of the product into vector pET30Xa/LIC. The sequence runs from Asp 1325 to Ser 1618 (Accession number A39401) following the N-terminal purification tag. The vector was used to transform BL21(DE3)pLysS cells. For expression, a culture of the transformed cells was induced at an OD600 of 0.6-0.8 at 37° C. with 1 mM IPTG for 3 h. The cells were harvested by centrifugation and the cell pellet lysed using the Bugbuster protein extraction reagent (Novagen). The cell lysate was cleared by centrifugation and the supernatant loaded directly onto a Ni-NTA column. […]
The intrinsic fluorescence of suramin was used to determine its capacity to bind to the various MSP1-derived proteins. The fluorescence was measured using a Perkin Elmer LS-3B or a Spex Fluoro Max 2 fluorimeter. Suramin was excited at a wavelength of 315 or 330 nm with 2.5 nm resolution, the emission spectra were measured at wavelengths ranging from 350-450 nm. Suramin and the MSP1 proteins were diluted in 20 mM NaH2PO4, 150 mM NaCl at pH 7.2 and analysed at 10 or 20° C. […] The Kd for the suramin-MSP1 binding was determined from three independent experiments.

SMILES: Cc1ccc(C(=O)Nc2ccc(S(=O)(=O)O)c3cc(S(=O)(=O)O)cc(S(=O)(=O)O)c23)cc1NC(=O)c1cccc(NC(=O)Nc2cccc(C(=O)Nc3cc(C(=O)Nc4ccc(S(=O)(=O)O)c5cc(S(=O)(=O)O)cc(S(=O)(=O)O)c45)ccc3C)c2)c1 [suramin]
- enhancement of intrinsic suramin fluorescence on binding: large binding-induced enhancements
